Data set [1] can be described thus: In vitro peptide stability in human serum. The class given is in vitro ADME. As to conditions: 25% human serum, 37 °C; for degradation behaviour in serum: up to 48 h, LC-MS. Here is the method: The test compounds were separately incubated with 25% human serum at 37 °C; residual starting materials were monitored as a function of time, and degradation products were characterized using LC-MS (Figure 5c). […] Besides terminal degradation, we also observed ring-opening products by hydrolysis of amide bonds within the hydrocarbon macrocycles in two stapled peptides (Figures S28, S29).

Another data set can be described thus: circular dichroism. As to conditions: PBS, pH 7.4, 25 °C. For orientation: Circular dichroism is the unequal absorption of left and right circularly polarised light.
The next data set has as its target T1, cyclin A1 with a His tag (Homo sapiens, UniProt P78396).
T1 construct: His; purchased Sino Biological
The data set is described as follows: Direct fluorescence polarization (FP) binding to cyclin A1. As to conditions: Figure 5b; FITC-labeled peptide, PBS, 3 h; read-out: FP assay for cyclin A: Kd^app. A general note: In fluorescence polarisation assays a small probe gives low polarisation when free and higher when bound to something large.

Data set [2] in a line: 25 % human serum diluted in RPMI medium. As to conditions: 37 °C, up to 48 hours (dual 0 – 72 hours in Figure S24).
[3] abbreviates: residual starting material vs time, LC-MS/HPLC, 95% confidence interval in parentheses.

Bridge positions count the residues as written; N and C are the ends. Square brackets hold non-standard residues; d marks the D form. Peptide text beside a SMILES is read from it. * marks the point of attachment. X1 = C[C@@H]1NC(=O)[C@H](CC(=O)O)NC(=O)[C@@H](N)CSCc2cc3cc(c2)CSC[C@@H](C(=O)*)NC(=O)[C@H](CSC3)NC(=O)[C@H](CO)NC1=O; FITC = O=C1OC2(c3ccc(O)cc3Oc3cc(O)ccc32)c2ccc(NC(=S)*)cc21; S5 = C=CCCC[C@](C)(N)C(=O)O; βAla = NCCC(=O)O A value given as a limit tells only on which side of the number the result lay.

The term half-life denotes the time in which the quantity being followed falls by half.

T1 sequence (P78396 whole entry): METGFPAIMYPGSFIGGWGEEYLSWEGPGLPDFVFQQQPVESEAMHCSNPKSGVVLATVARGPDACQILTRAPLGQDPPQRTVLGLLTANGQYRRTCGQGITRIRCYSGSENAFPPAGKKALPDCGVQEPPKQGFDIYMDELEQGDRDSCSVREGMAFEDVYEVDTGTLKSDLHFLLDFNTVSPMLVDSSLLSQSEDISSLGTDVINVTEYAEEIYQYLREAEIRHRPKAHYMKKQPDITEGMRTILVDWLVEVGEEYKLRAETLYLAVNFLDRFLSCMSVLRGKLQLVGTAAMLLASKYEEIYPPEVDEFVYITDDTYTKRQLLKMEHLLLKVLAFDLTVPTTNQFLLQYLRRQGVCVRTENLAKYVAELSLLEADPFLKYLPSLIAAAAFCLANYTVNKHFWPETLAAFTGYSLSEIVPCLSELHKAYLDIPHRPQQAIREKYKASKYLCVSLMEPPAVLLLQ

For `CC[C@H](C)[C@H](NC(=O)[C@@H]1CSCc2cc3cc(c2)CSC[C@H](N)C(=O)N[C@@H](CC(=O)O)C(=O)N[C@@H](C)C(=O)N[C@@H](CO)C(=O)N[C@@H](CSC3)C(=O)N1)C(=O)N[C@@H](CCCNC(=N)N)C(=O)N[C@@H](CCC(=O)O)C(=O)N[C@H](C(=O)N[C@@H](CO)C(=O)N[C@@H](CC(C)C)C(=O)N[C@@H](CC(C)C)C(=O)N[C@@H](CCCCN)C(=O)N[C@@H](CCC(=O)O)C(=O)N[C@@H](Cc1ccc(O)cc1)C(N)=O)[C@@H](C)CC` [BAMM] (X1-IREISLLKEY-NH2), in data set [1], the “degradation behaviour in serum” value is “hydrolyzed more slowly and formed stable byproducts”. For the same compound, in data set [1] (setting [3]), the half-life is 2.1 h. For the same compound, the helicity in “circular dichroism” (5-30 uM) is -5590 MRE222.
Consider `CC[C@H](C)[C@H](NC(=O)[C@H](C)NC(=O)[C@@H](NC(=O)[C@H](CO)NC(=O)[C@H](C)NC(C)=O)[C@@H](C)O)C(=O)N[C@@H](CCCNC(=N)N)C(=O)N[C@@H](CCC(=O)O)C(=O)N[C@H](C(=O)N[C@@H](CO)C(=O)N[C@@H](CC(C)C)C(=O)N[C@@H](CC(C)C)C(=O)N[C@H]1CSCc2cc3cc(c2)CSC[C@H](NC(=O)[C@H](Cc2ccc(O)cc2)NC(=O)[C@H](CCC(=O)O)NC1=O)C(=O)NCC(=O)N[C@H](C(N)=O)CSC3)[C@@H](C)CC` [BSM], for which the “degradation behaviour in serum” value in data set [1] is “hydrolyzed more slowly and formed stable byproducts”. In data set [1] (setting [3]), the half-life is 2.6 h. In addition, the helicity in the data set “circular dichroism” (5-30 uM) is -5000 MRE222.
`CC[C@H](C)[C@H](NC(=O)[C@@H]1CSCc2cc3cc(c2)CSC[C@H](N)C(=O)N[C@@H](CC(=O)O)C(=O)N[C@@H](C)C(=O)N[C@@H](CO)C(=O)N[C@@H](CSC3)C(=O)N1)C(=O)N[C@@H](CCCNC(=N)N)C(=O)N[C@@H](CCC(=O)O)C(=O)N[C@H](C(=O)N[C@@H](CO)C(=O)N[C@@H](CC(C)C)C(=O)N[C@@H](CC(C)C)C(=O)N[C@H]1CSCc2cc3cc(c2)CSC[C@H](NC(=O)[C@H](Cc2ccc(O)cc2)NC(=O)[C@H](CCC(=O)O)NC1=O)C(=O)NCC(=O)N[C@H](C(N)=O)CSC3)[C@@H](C)CC` [dual]: in data set [1], the “t1/2 relative to staple-2” value is recorded as > 5.6 ×; the “t1/2 relative to the linear control” value is recorded as > 49 ×; the “degradation behaviour in serum” value is given as “oxidation (sulfoxides, M^++16) but not proteolysis was observed”. Further, in data set [1] (setting [3]), the “half-life (h)” value was 39.5 (>19.3) h. Further, the helicity in “circular dichroism” (13 uM) was -11300 MRE222.
Take `CC[C@H](C)[C@@H]1NC(=O)[C@H](C)NC(=O)[C@@](C)(NC(=O)[C@H](CO)NC(=O)[C@H](C)NC(=O)CCNC(=O)CCNC(=O)CCNC(=S)Nc2ccc3c(c2)C(=O)OC32c3ccc(O)cc3Oc3cc(O)ccc32)CCCC=CCCC[C@@](C)(C(=O)N[C@H](C(=O)N[C@@H](CO)C(=O)N[C@@H](CC(C)C)C(=O)N[C@@H](CC(C)C)C(=O)N[C@@H](CCCCN)C(=O)N[C@@H](CCC(=O)O)C(=O)N[C@@H](Cc2ccc(O)cc2)C(N)=O)[C@@H](C)CC)NC(=O)[C@H](CCCNC(=N)N)NC1=O` [staple-1-f] ({FITC-βAla-βAla-βAla}-AS[S5]AIR[S5]ISLLKEY-NH2; staple 3-7): the Kd at cyclin A1 with a His tag came out at 1470 ± 210 nM.
For the compound `CC[C@H](C)[C@@H]1NC(=O)[C@H](C)NC(=O)[C@@](C)(NC(=O)[C@H](CO)NC(=O)[C@H](C)NC(C)=O)CCCC=CCCC[C@@](C)(C(=O)N[C@H](C(=O)N[C@@H](CO)C(=O)N[C@@H](CC(C)C)C(=O)N[C@@H](CC(C)C)C(=O)N[C@@H](CCCCN)C(=O)N[C@@H](CCC(=O)O)C(=O)N[C@@H](Cc2ccc(O)cc2)C(N)=O)[C@@H](C)CC)NC(=O)[C@H](CCCNC(=N)N)NC1=O` [staple-1] (Ac-AS[S5]AIR[S5]ISLLKEY-NH2; staple 3-7), the “degradation behaviour in serum” value in data set [1] is listed as “overall higher stabilities”. In addition, the half-life in data set [1] (setting [3]) is 5.7 h. For the same compound, the helicity in “circular dichroism” (17 uM) was -13200 MRE222.
Take `CC[C@H](C)[C@H](NC(=O)[C@H](C)NC(=O)[C@@H](NC(=O)[C@H](CO)NC(=O)[C@H](C)NC(C)=O)[C@@H](C)O)C(=O)N[C@@H](CCCNC(=N)N)C(=O)N[C@@]1(C)CCCC=CCCC[C@@](C)(C(=O)N[C@@H](CCCCN)C(=O)N[C@@H](CCC(=O)O)C(=O)N[C@@H](Cc2ccc(O)cc2)C(N)=O)NC(=O)[C@H](CC(C)C)NC(=O)[C@H](CO)NC(=O)[C@H]([C@@H](C)CC)NC1=O` [staple-2] (Ac-ASTAIR[S5]ISL[S5]KEY-NH2; staple 7-11): the “degradation behaviour in serum” value in data set [1] was “overall higher stabilities”. Moreover, the half-life in data set [1] (setting [3]) is 7 h. Also, in the data set “circular dichroism” (22 uM), the helicity is -11100 MRE222.
For Ac-ASTAIREISLLCEYCGC, the fragment found entry in data set [2] was “CEYCGC (BSM bicycle), major”.
For Ac-ASTAIREISLLKEY-NH2, the helicity in the data set “circular dichroism” (5-30 uM) was -3310 MRE222.
On to CDASCCIREISLLCEYCGC, for which the fragment found entry in data set [2] is listed as “sulfoxide dual; oxidized dual, 8h”.
On the same count and under the same terms, then CDASCCIREISLLKEY, with “CDASCCIRE (BAMM bicycle with three residues), major”.

Values taken from publication PMC11027154 (Journal of the American Chemical Society, 2024).
